Results taken from publication PMC8692993, “PPARα and PPARγ activation is associated with pleural mesothelioma invasion but therapeutic inhibition is ineffective” (iScience, 2021).
Where two headings read alike, the source gives them in different places.

Experiments:
[1] = tested on: SC model of melanoma or a metastatic model of lung cancer; design: method as in Zou et al., 2019; conditions: ref Zou et al., 2019; cited from earlier work
[2] = tested on: brain metastases from melanoma and breast cancer; design: method as in Zou et al., 2019; conditions: murine models; ref Zou et al., 2019; cited from earlier work
[3] = tested on: AB1; experiment: MTT cell metabolic activity assay, AB1; assay type: cell-based, mouse; conditions: AB1, arachidonic acid 5 and 10 μM, p <0.05
Description: (§1) Cells were harvested and seeded in 96-flat well plates (Corning) at a density of 5 x 10^4 cells/mL overnight. Media was removed and 100 μL media with GW6471 or GW9662 at indicated concentrations was added to each well. Cell viability and toxicity were measured at 48 h. Cells were incubated with 50 μL of a 2 mg/mL solution of (3-(4,5-dimethyl-thiazole-2-yl)-2,5-[…] tetrazolium (MTT, Sigma-Aldrich) in PBS for 4 h and then exposed to 100 μL dimethyl sulfoxide (DMSO; Sigma-Aldrich). Cell viability was measured by absorption at 570 nm in a microplate spectrophotometer (Spectromax 250 plate reader). Results are shown as relative cell viability.

[4] = tested on: VGE62; experiment: MTT cell metabolic activity assay, VGE62; assay type: cell-based, human; conditions: VGE62, arachidonic acid 5 and 10 μM, p <0.05
Description: as §1

[5] = tested on: AE17; experiment: MTT cell metabolic activity assay, AE17; assay type: cell-based, mouse; conditions: AE17, arachidonic acid 5 and 10 μM, p <0.05
Description: as §1

[6] = tested on: HAP1, HAP1 PPARA KO, and HAP1 PPARG KO cell lines; experiment: MTT cell metabolic activity assay, HAP1 lines; assay type: cell-based, human; conditions: arachidonic acid 5 and 10 μM, p <0.0001
Description: as §1

[7] = molecular target: T1, PPARγ (Homo sapiens, UniProt P37231); experiment: LanthaScreen TR-FRET binding assay, PPARγ; conditions: 2 h incubation, mean of 3 replicates ± SEM
T1 sequence (P37231 238-503 limits assumed): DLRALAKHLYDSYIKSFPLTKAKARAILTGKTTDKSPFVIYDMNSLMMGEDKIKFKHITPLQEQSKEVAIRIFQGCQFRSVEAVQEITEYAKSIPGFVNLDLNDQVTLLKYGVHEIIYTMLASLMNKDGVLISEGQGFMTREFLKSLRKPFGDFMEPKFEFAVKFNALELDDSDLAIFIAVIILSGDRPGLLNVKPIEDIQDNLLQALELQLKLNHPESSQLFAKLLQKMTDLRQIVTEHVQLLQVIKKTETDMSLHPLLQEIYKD
Description: (§2) The LanthaScreen™ TR-FRET binding assay was performed following the manufacturer's guidelines (PV4894, Invitrogen) as follows, 20 mM stock solution of the ligand or control in DMSO were serially diluted using 100% DMSO to produce a range of concentrations from 100 μM to 1 pM. The test compound solutions were mixed with the reaction buffer in a 1 (ligand) in 10 (reaction buffer) dilution for a final 2X ligand concentration. This was mixed with the reaction components (glutathione S-transferase (GST)-PPPARγLBD (0.5 nM)/, terbium (Tb)-labelled anti-GST antibody (5 nM) and Fluormone pan-PPAR green (5 nM for PPARγ; 20 nM for PPARα) at room temperature in a ratio of 8 μLl 2X ligand solution: 4 μLl of 4XFluormone: and 4 μLl 4X GST-PPPARγLBD/terbium (Tb)-labelled anti-GST antibody to produce a final reaction mixture volume of 16 μL. The concentration of DMSO in the final reaction mixture was 5%. The reaction mixture was kept at room temperature for 2 h prior to recording the TR-FRET emission spectra using a CLARIOstar Plus microplate reader (BMG Labtech). […] Results are expressed as the ratio of fluorescence intensity at 520 nm (Fluormone emission) and 490 nm (Tb emission). […] For each compound three serial dilutions were prepared and measured separately. The IC50 and SEM values were determined using a sigmoidal dose-response equation with varying slope using GraphPad Prism.

[8] = molecular target: T1, PPARγ; design: method as in Leesnitzer et al., 2002; conditions: displacement of [3H]rosiglitazone, incubation time 1 h, ref Leesnitzer et al., 2002, read-out: Lit. Binding assay, IC50; cited from earlier work
[9] = molecular target: T1, PPARγ; experiment: HG5LN reporter cell assay, PPARγ-mediated transcription; assay type: cell-based; design: expressed in transfected cells; host or cells: HG5LN (HeLa-derived, GAL4RE-luciferase)
From the text: (§3) Nuclear receptors, including PPARα and γ, are ligand-inducible transcription factors that form heterodimers with retinoid X receptors and bind to specific DNA sites located in the enhancer/promoter region of target genes, releasing co-repressors and/or recruiting co-activators ([Wang, 2010]). We therefore assessed the functional consequences of the ligands on PPARα and γ-mediated transcriptional activation in reporter cell lines. These cell lines were generated as previously reported by a two-step transfection procedure ([Seimandi et al., 2005]). First, a stable cell line, HG5LN, expressing the reporter gene (GAL4RE-luciferase) was developed from the HeLa cell line. These cells were then transfected with a plasmid expressing the C-terminal ligand-binding domain of PPARα or γ fused to GAL4 DNA-binding domain. The parental HG5LN cells were used as a control to test non-specific modulation of luciferase expression by the small molecules investigated (Figure S4A). The HG5LN PPAR reporter cells therefore allow comparison of the functional activity at, and selectivity of different ligands for, PPARα and γ. […] As expected ([Abu Aboud et al., 2015]), GW6471 potently antagonized PPARα (Figure 4E and Table 1).
(§4) A transfected […] cell line HG5LN was used ([Balaguer et al., 2001]). These cells were cultured in Dubecco's modified Eagle's medium (DMEM-F12 Thermo Fisher Scientific) with phenol red and supplemented with 5% foetal calf serum, incubated at 37°C in a 5% CO2/95% air-humidified atmosphere. Luciferase assays were performed in DMEM-F12 (Thermo Fisher Scientific) without phenol red and supplemented with 5% dextran-coated charcoal-stripped FCS (test culture medium), puromycin (Thermo Fisher Scientific) 0.5 μg/mL and geneticin (Thermo Fisher Scientific) 1 mg/mL. Cells were seeded at a density of 5 x 10^4 cells/well and incubated for 8 h at 37°C in a 96-well plate white opaque tissue culture plates (Becton-Dickinson). Tested compounds were added in serial dilutions and incubated for 16 h at 37°C. After incubation, the medium containing the effectors was carefully removed and replaced by culture medium containing 3 x 10^−4 mol/L luciferin (Sigma Chemicals). After 5 min incubation at room temperature, the 96-well plate was then read with a Microbeta Wallac luminometer and the luminescence was measured in the living cells for 2 s. All experiments were performed in quadruplicate.

[10] = molecular target: T1, PPARγ; design: expressed in transfected cells; host or cells: HG5LN (HeLa-derived, GAL4RE-luciferase); method as in Seimandi et al., 2005; conditions: inhibition of agonism by 20 nM rosiglitazone (BRL49653), ref Seimandi et al., 2005, read-out: Functionality, Lit. IC50; cited from earlier work
[11] = molecular target: T2, PPARα (Homo sapiens, UniProt Q07869); design: method as in Leesnitzer et al., 2002; conditions: displacement of [3H]GW2331, incubation time 1 h, ref Leesnitzer et al., 2002, read-out: Lit. Binding assay, IC50; cited from earlier work
T2 sequence (Q07869 239-466 limits assumed): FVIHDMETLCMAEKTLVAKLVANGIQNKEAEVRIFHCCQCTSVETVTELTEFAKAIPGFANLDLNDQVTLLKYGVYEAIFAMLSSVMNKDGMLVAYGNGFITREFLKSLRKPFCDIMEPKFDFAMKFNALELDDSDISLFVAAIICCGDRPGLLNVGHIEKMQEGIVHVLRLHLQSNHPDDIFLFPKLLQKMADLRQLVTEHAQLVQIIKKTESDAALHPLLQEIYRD

[12] = molecular target: T2, PPARα; experiment: LanthaScreen TR-FRET binding assay, PPARα; conditions: 2 h incubation, mean of 3 replicates ± SEM
Description: as §2

[13] = molecular target: T2, PPARα; design: expressed in transfected cells; host or cells: HG5LN (HeLa-derived, GAL4RE-luciferase); method as in Seimandi et al., 2005; conditions: ref Seimandi et al., 2005, cited from earlier work
[14] = molecular target: T2, PPARα; experiment: HG5LN reporter cell assay, PPARα-mediated transcription; assay type: cell-based; design: expressed in transfected cells; host or cells: HG5LN (HeLa-derived, GAL4RE-luciferase)
From the text: as §3, §4

O=C(Nc1ccncc1)c1cc([N+](=O)[O-])ccc1Cl [T0070907]
Tumor growth [1]: did not find an inhibitory effect on tumor growth | Brain metastases [2]: significant decrease of brain metastases from melanoma and breast cancer

CCCCC/C=C\C/C=C\C/C=C\C/C=C\CCCC(=O)O [arachidonic acid]
Proliferation (MTT) [3]: increased proliferation in a concentration-dependent manner | Proliferation (MTT) [4]: increased proliferation in a concentration-dependent manner | Proliferation (MTT) [5]: increased proliferation in a concentration-dependent manner | Proliferation (MTT) in HAP1 parental versus PPARA/PPARG KO cells [6]: significant increase in proliferation, but only in the HAP1 parental cell line

O=C(Nc1ccccc1)c1cc([N+](=O)[O-])ccc1Cl [GW9662]
IC50 [7]: 12.4 ± 3.6 nM | IC50 [8]: 5.4 ± 0.6 nM | Functionality, Type [9]: antagonist | IC50 ([9]; inhibition of agonism by 30 nM rosiglitazone, 16 h incubation, mean of 3 experiments ± SEM): 4 ± 2.6 nM | IC50 [10]: 3.8 ± 1.3 nM | IC50 [11]: 39 ± 4 nM | IC50 [12]: 214 ± 64.6 nM | EC50 ([13]; PPARα partial agonism, read-out: Functionality, Lit. EC50): 26 ± 9 nM | IC50 ([13]; PPARα, inhibition of agonism by 30 nM GW7647, read-out: Functionality, Lit. IC50): 188 ± 43 nM | Maximal activity reached (partial agonism) ([13]; PPARα): j 33% of maximal activity ([Seimandi et al., 2005]). | Functionality, Type [14]: partial agonist | IC50 ([14]; inhibition of agonism by 10 nM GW7647, 16 h incubation, mean of 3 experiments ± SEM): 131 ± 31 nM
